Laboratory results published in US4742155A, “Plipastatin and method for preparation thereof” (Zaidan Hojin Biseibutsu Kagaku Kenkyu Kai, priority 1984, dated 1988).
“Also recorded” adds a separate entry of the source. Bridge positions count the residues as written; N and C are the ends. Square brackets hold non-standard residues; d marks the D form. Peptide text beside a SMILES is read from it. * marks the point of attachment. Hexadecanoyl(3R-OH) = CCCCCCCCCCCCC[C@@H](O)CC(=O)*; d(aThr) = C[C@@H](O)[C@@H](N)C(=O)O; dOrn = NCCC[C@@H](N)C(=O)O

Assays:
[1] = test system: PCA (Passive Cutaneous Anaphylaxis) reactions in rats of the S-D strain; experiment: PCA (Passive Cutaneous Anaphylaxis) reaction, Evans blue patch; assay type: in vivo; conditions: for Development of blue patch +, number of animals in a group of five / Development of blue patch -, number of animals in a group of five / Development of blue patch ±, number of animals in a group of five: 150 μl intradermal 5 min before challenge
Experimental: The experiment described below was accomplished in accordance with conventional methods. (Reference: J. Immunology, 106, 1002-1011, 1971). Rats were sensitized with egg albumin antigen to obtain an anti-serum. The rats of the S-D strain (male, 8 wk of age) were passively sensitized by intradermal injection of 50 μl of the thus obtained anti-egg albumin serum on their backs. Forty-eight hours later, each rat was challenged by the intravenous injection of physiological saline containing egg albumin (2.5 mg) plus Evans blue (2.5 mg). Sixty minutes after the injection, any development of blue dye patch due to the extravasation of Evans blue at the sensitized site was checked. Five minutes before the challenge, the test compound (150 μl) was intradermally injected at the sensitized site. DSCG (disodium cromoglycate) was used as a control.

phospholipase A2 = molecular target: phospholipase A2
Experimental: (§1) The measurement of the antiphospholipase D activity is carried out by the method of Okuyama et al. described in A. Okuyama, T. Nishikiori, T. Aoyagi and H. Umezawa, Biochemistry international, 4, 417, 1982. Dipalmitoylphosphatidyl choline (DPC) (200 mM) and cholin-methyl-^14 C-DPC (4×10^4 dpm) are suspended ultrasonically in 390 μl of 50 mM tris-hydrochloric acid buffer (pH 5.7) containing 1 mM calcium chloride. To the resulting suspension is added 10 μl of a solution containing the sample to be tested. To the resulting mixture is added 100 μl of a solution of commercially available phospholipase D (derived from cabbage) and reacted at 37° C. for 20 minutes. The reaction is quenched by addition of 1.5 ml of a mixture of chloroform, methanol and conc. hydrochloric acid (2:1:0.02 v/v). To this mixture is then added 1 ml of 50% methanol containing […] potassium chloride and the mixture is stirred. Two layers are separated by centrifugation. The radioactivity (a) of choline liberated from the upper layer by the enzyme is measured. Also, the radioactivity (b) of the buffer free from the sample is measured as a blank test. The percentage inhibition of phospholipase activity is calculated according to the following formula: [(b-a)/b]×100.
(§2) IC50 values correspond to the concentration of the samples giving a 50% inhibition.
(§3) The measurement of the inhibition of phospholipase was accomplished by the method of Okuyama et al. set forth above.

phospholipase C = molecular target: phospholipase C
Experimental: as §1, §2, §3

[2] = molecular target: phospholipase D (derived from cabbage); experiment: Inhibition of phospholipase D (antiphospholipase D activity, 14C-DPC); assay type: biochemical; conditions: Table 2
Description: The monitoring of the production of Plipastatin through the cultivation and purification steps is accomplished by measuring the antiphospholipase D activity in accordance with the following method.
Two layers are separated by centrifugation.

[3] = test system: delayed-type hypersensitivity (DTH) in CDF1 mice; experiment: Cell-mediated immunity: delayed-type hypersensitivity (DTH) to SRBC, footpad swelling; assay type: in vivo; conditions: for Thickness of footpad: 24 h after secondary SRBC challenge, CDF1 mice; for Percentage with respect to the control: footpad swelling, control = 100%
Description: This experiment illustrates the effects on the cell-mediated immunity in normal mice.
The activities of Plipastatin A1 and B1 on cell-mediated immunity were studied in terms of delayed-type hypersensitivity (DTH) caused by inoculating mice with antigenic sheep red blood cells (SRBC) in one footpad (Reference: J. Exp. Med., 139, 1529-1539, 1974).
CDF1 mice (female, 8 week of age) were inoculated intravenously with a suspension of 5×10^5 SRBC in physiological saline. At the same time, a single dose of an aqueous solution of 5 mg/Kg or 0.5 mg/Kg of Plipastatin A1 or B1 was administered intraperitoneally to the mice. Four days after the injection, the mice were subjected to the secondary challenge by subcutaneous injection of the other footpad with a suspension of 10^8 SRBC in physiological saline. Twenty-four hours later, the degree of footpad swelling (increasing in the thickness of the footpad) was measured with a caliper. The cell-mediated immunity suppressive effects of the test compounds were determined by comparing the degree of footpad swelling in the treated animals with the degree of footpad swelling (100%) in untreated, control animals that were subcutaneously injected in their footpads with an aqueous solution of SRBC in physiological saline in stead of the test compounds.

[4] = test system: Con A-stimulated T-lymphocytes; experiment: Reaction of T-lymphocyte blastogenesis, [3H]-thymidine uptake; assay type: cell-based, BALB/c mice; conditions: 100 μg/ml (given for Plipastatin A1; not given for B1); 5 μg/ml Con A, 72 hours
Experimental: (§4) This experiment illustrates the suppressive effects of Plipastatin on the reaction of lymphocyte blastogenesis.
(§5) The reaction of lymphocyte blastogenesis was evaluated in terms of the incorporation of [^3 H]-thymidine in the DNA synthesis by both T-cells and B-cells stimulated with concanavalin A (hereunder referred to as Con A) and lipopolysaccharide of E. coli 055:B5. (Reference "Meneki Jikken Sosaho", or "Immunological Experiments Manual", pp. 2267-2276, The Japanese Society for Immunology).
(§6) In the reaction of T-lymphocyte blastogenesis, the T-cells were obtained by passing spleen cells of BALB/c mice (19 weeks old) through a nylon column to remove adsorptive cells and by then cultivating the resulting spleen cells in a plastic Petri dish for one hour to eliminate the remaining adsorptive cells. The cultivation of the T-cells was conducted in wells of a Falcon microtest plate using RPMI 1640 medium containing 20% fetal bovine serum, […] of Hepes, 100 μg/ml of streptomycin and 100 U/ml of penicillin G. The T-lymphocytes (1×10^5), 5 μg/ml of Con A and PLIPASTATIN A1 or B1 were added in that order to the wells and said medium was then added to the wells to make a total of 0.2 ml. The resulting mixture was incubated for 72 hours. The mixture was pulse-labeled with [^3 H]-thymidine at 8 hours before terminating the cultivation. […]

[5] = test system: LPS-stimulated B-lymphocytes; experiment: Reaction of B-lymphocyte blastogenesis, [3H]-thymidine uptake; assay type: cell-based, BALB/c mice; conditions: 100 μg/ml (given for Plipastatin A1; not given for B1); 100 μg/ml LPS, 72 hours
Experimental: as §4, §5, §6

Solubility = assay type: physicochemical; conditions: potassium salts (Table 1)
Experimental: (All measurements were carried out using potassium salts of the compounds unless otherwise specified.)

[6] = mouse, in vivo, ip

## O=C([O-])c1cc(=O)c2c(OCC(O)COc3cccc4oc(C(=O)[O-])cc(=O)c34)cccc2o1.[Na+].[Na+] [DSCG, disodium cromoglycate, reference compound]
[1]; Conc. 59 μM
  Development of blue patch +, number of animals in a group of five: 0
  Development of blue patch -, number of animals in a group of five: 4
  Development of blue patch ±, number of animals in a group of five: 1
[1]; Conc. 590 μM
  Development of blue patch +, number of animals in a group of five: 0
  Development of blue patch -, number of animals in a group of five: 4
  Development of blue patch ±, number of animals in a group of five: 1

## CCCCCCCCCCCCC[C@@H](O)CC(=O)N[C@@H](CCC(=O)O)C(=O)N[C@H](CCCN)C(=O)N[C@H]1Cc2ccc(cc2)OC(=O)[C@H]([C@@H](C)CC)NC(=O)[C@@H](Cc2ccc(O)cc2)NC(=O)[C@H](CCC(N)=O)NC(=O)[C@@H]2CCCN2C(=O)[C@@H](C(C)C)NC(=O)[C@H](CCC(=O)O)NC(=O)[C@@H]([C@@H](C)O)NC1=O [Plipastatin B1] ({Hexadecanoyl(3R-OH)}-E[dOrn]Y[d(aThr)]E[dV]PQ[dY]I; ester 3-C)
Phospholipase A2
  Degree of inhibition, IC50, phospholipase A2: 5.2 µg/mL
Phospholipase C
  Degree of inhibition, IC50, phospholipase C: 3.6 µg/mL
[2]
  Degree of inhibition, IC50, phospholipase D: 2.8 µg/mL
[3]; dose 0.5 mg/Kg single i.p.
  Thickness of footpad: 97 ± 44 × 10^-2 mm
  Percentage with respect to the control: 99%
[3]; dose 5 mg/Kg single i.p.
  Thickness of footpad: 57 ± 31 × 10^-2 mm
  Percentage with respect to the control: 58%
[4]
  Suppression of uptake of [3H]-thymidine into Con A-stimulated T-lymphocytes: 54%
[5]
  Suppression of uptake of [3H]-thymidine into LPS-stimulated B-lymphocytes: 20%
Solubility
  Solubility: Soluble in water, methanol, ethanol, and dimethyl sulfoxide; also recorded: Insoluble in organic solvents such as acetone, ethyl acetate,
[6]
  LD50: 250 to 500 mg/kg

## Plipastatin A1
Phospholipase A2
  Degree of inhibition, IC50, phospholipase A2: 4.3 µg/mL
Phospholipase C
  Degree of inhibition, IC50, phospholipase C: 1.9 µg/mL
[2]
  Degree of inhibition, IC50, phospholipase D: 2.1 µg/mL
[3]; dose 0.5 mg/Kg single i.p.
  Thickness of footpad: 63 ± 25 × 10^-2 mm
  Percentage with respect to the control: 64%
[3]; dose 5 mg/Kg single i.p.
  Thickness of footpad: 48 ± 16 × 10^-2 mm
  Percentage with respect to the control: 49%
[4]
  Suppression of uptake of [3H]-thymidine into Con A-stimulated T-lymphocytes: 52%
[5]
  Suppression of uptake of [3H]-thymidine into LPS-stimulated B-lymphocytes: 15%
[1]; Conc. 5.9 μM
  Development of blue patch +, number of animals in a group of five: 2
  Development of blue patch -, number of animals in a group of five: 0
  Development of blue patch ±, number of animals in a group of five: 3
[1]; Conc. 59 μM
  Development of blue patch +, number of animals in a group of five: 0
  Development of blue patch -, number of animals in a group of five: 4
  Development of blue patch ±, number of animals in a group of five: 1
[1]; Conc. 590 μM
  Development of blue patch +, number of animals in a group of five: 0
  Development of blue patch -, number of animals in a group of five: 5
  Development of blue patch ±, number of animals in a group of five: 0
[1]; intradermal injections of 590 and 59 μM
  Suppressive effects on PCA reactions: comparable to those of DSCG
Solubility
  Solubility: Soluble in water, methanol, ethanol, and dimethyl sulfoxide; also recorded: Insoluble in organic solvents such as acetone, ethyl acetate,

## Plipastatin B2
Phospholipase A2
  Degree of inhibition, IC50, phospholipase A2: 3.5 µg/mL
Phospholipase C
  Degree of inhibition, IC50, phospholipase C: 4.5 µg/mL
[2]
  Degree of inhibition, IC50, phospholipase D: 3.3 µg/mL
Solubility
  Solubility: Soluble in water, methanol, ethanol, and dimethyl sulfoxide; also recorded: Insoluble in organic solvents such as acetone, ethyl acetate,

## Plipastatin A2
Phospholipase A2
  Degree of inhibition, IC50, phospholipase A2: 3.4 µg/mL
Phospholipase C
  Degree of inhibition, IC50, phospholipase C: 4.0 µg/mL
[2]
  Degree of inhibition, IC50, phospholipase D: 3.8 µg/mL
Solubility
  Solubility: Soluble in water, methanol, ethanol, and dimethyl sulfoxide; also recorded: Insoluble in organic solvents such as acetone, ethyl acetate,
